Read-outs that look alike come from different tables or passages of the source.
How the values were obtained:
[1] = system: NCI-H1581 cells; assay: Cell proliferation assay on NCI-H1581 (Table 7); type: cell-based, human
Excerpt: (§1) Test method: adding the appropriate volume of whole medium and the cells was suspended.

[2] = system: RT-112 (human bladder cancer cell); assay: Cell proliferation assay, CellTiter Glo (Table 9); type: cell-based
Method: (§2) Test method: 100 μl of the cell suspension was added to a 96-well plate and placed in a CO2 incubator overnight. Test compounds were dissolved in DMSO and subjected to a 3-fold gradient dilution for a total of 10 concentrations. The test compound or DMSO was transferred to the corresponding cell wells respectively and was incubated for 96 hrs in 5% CO2 at 37° C. 100 μl of CellTiter-Glo reagent was added to the assay plate and incubated for 10 min at room temperature to stabilize the luminescence signal. The IC50 value was calculated by recording the RLU (relative luminescence unit) using Enspire.

[3] = system: NCI-H716 (human colorectal cancer cell); assay: Cell proliferation assay, CellTiter Glo (Table 9); type: cell-based
Method: as §2

[4] = system: RT4 (human bladder cancer cell); assay: Cell proliferation assay, CellTiter Glo (Table 9); type: cell-based; conditions: 96 hrs
Method: as §2

[5] = system: NCI-H1581 (human non-small cell lung cancer cells); assay: Cell proliferation assay, CellTiter Glo (Table 9); type: cell-based
Method: as §2

[6] = system: JHH-7 (human hepatoma cell); assay: Cell proliferation assay, CellTiter Glo (Table 9); type: cell-based
Method: as §2

[7] = system: MFE-296 (human endometrial cancer cells); assay: Cell proliferation assay, CellTiter Glo (Table 9); type: cell-based; conditions: WIFE-296 [sic]
Method: as §2

[8] = system: OPM-2 (human myeloma cell); assay: Cell proliferation assay, CellTiter Glo (Table 9); type: cell-based
Method: as §2

[9] = system: SNU-16 (human gastric cancer cell); assay: Cell proliferation assay, CellTiter Glo (Table 9); type: cell-based
Method: as §2

[10] = system: MDA-MB-453 (human breast cancer cell); assay: Cell proliferation assay, CellTiter Glo (Table 9); type: cell-based
Method: as §2

[11] = system: DMS 114 (human lung cancer cell); assay: Cell proliferation assay, CellTiter Glo (Table 9); type: cell-based
Method: as §2

[12] = molecular target: FGFR3 (Homo sapiens (Human), UniProt P22607); assay: Kinase assay Method 1, mobility shift assay; type: biochemical; conditions: ATP at Km, read-out: IC50(nM) value of compounds FGFR3
[13] = molecular target: FGFR2 (Homo sapiens (Human), UniProt P21802); assay: Kinase assay Method 1, mobility shift assay; type: biochemical; conditions: ATP at Km, read-out: IC50(nM) value of compounds FGFR2
[14] = molecular target: FGFR4 (Homo sapiens (Human), UniProt P22455); assay: Kinase assay Method 1, mobility shift assay; type: biochemical; conditions: ATP at Km, numeric values, read-out: IC50(nM) value of compounds FGFR4
[15] = system: SNU-16 cells; assay: Cell proliferation assay on SNU-16, CellTiter Glo (Table 8); type: cell-based, human; conditions: class symbols, read-out: IC50(nM) value of compounds on SNU-16 cells
Excerpt: as §1

[16] = molecular target: FGFR1 (Homo sapiens (Human), UniProt P11362); assay: Kinase assay Method 1, mobility shift assay; conditions: read-out: IC50(nM) value of compounds FGFR1; mobility shift assay, ATP at Km; class symbols
Method: Method 1: The inhibitory activity of some compounds of the present disclosure against FGFR1, FGFR2, FGFR3, FGFR4, KDR was tested by mobility shift assay (concentration of ATP is Km value).
Preparing of compounds: dilute test compounds to specific concentration using 100% DMSO

[17] = Homo sapiens, NCI-H1581, read-out: IC50(nM) value of compounds on NCI-H1581 cells
[18] = Homo sapiens, NCI-H1581, CellTiter 96 AQueous (144 hrs) or CellTiter Glo (96 hrs), class symbols, read-out: IC50(nM) value of compounds on NCI-H1581 cells

Sequence of FGFR2 (P21802 22-821): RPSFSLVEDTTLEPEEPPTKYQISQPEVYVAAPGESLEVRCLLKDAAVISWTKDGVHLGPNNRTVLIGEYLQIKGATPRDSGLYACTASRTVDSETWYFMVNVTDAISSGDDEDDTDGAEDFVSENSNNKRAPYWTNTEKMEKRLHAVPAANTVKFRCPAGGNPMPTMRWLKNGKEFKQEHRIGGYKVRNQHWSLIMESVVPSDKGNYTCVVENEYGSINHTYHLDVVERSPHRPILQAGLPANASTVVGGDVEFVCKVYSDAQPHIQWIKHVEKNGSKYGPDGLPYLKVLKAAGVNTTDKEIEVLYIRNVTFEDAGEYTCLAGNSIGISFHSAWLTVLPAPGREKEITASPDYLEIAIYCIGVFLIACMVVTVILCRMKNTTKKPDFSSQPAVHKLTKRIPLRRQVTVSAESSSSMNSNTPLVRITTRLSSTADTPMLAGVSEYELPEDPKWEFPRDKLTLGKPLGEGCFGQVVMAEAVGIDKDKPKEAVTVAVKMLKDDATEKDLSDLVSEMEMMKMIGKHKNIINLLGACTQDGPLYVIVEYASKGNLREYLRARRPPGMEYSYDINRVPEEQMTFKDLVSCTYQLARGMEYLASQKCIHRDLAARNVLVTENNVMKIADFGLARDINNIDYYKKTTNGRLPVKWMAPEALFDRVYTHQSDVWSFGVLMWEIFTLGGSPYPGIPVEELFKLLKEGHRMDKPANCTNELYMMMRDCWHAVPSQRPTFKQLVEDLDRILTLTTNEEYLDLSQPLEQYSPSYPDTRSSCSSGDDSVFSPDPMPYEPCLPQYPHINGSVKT
Sequence of FGFR4 (P22455 22-802): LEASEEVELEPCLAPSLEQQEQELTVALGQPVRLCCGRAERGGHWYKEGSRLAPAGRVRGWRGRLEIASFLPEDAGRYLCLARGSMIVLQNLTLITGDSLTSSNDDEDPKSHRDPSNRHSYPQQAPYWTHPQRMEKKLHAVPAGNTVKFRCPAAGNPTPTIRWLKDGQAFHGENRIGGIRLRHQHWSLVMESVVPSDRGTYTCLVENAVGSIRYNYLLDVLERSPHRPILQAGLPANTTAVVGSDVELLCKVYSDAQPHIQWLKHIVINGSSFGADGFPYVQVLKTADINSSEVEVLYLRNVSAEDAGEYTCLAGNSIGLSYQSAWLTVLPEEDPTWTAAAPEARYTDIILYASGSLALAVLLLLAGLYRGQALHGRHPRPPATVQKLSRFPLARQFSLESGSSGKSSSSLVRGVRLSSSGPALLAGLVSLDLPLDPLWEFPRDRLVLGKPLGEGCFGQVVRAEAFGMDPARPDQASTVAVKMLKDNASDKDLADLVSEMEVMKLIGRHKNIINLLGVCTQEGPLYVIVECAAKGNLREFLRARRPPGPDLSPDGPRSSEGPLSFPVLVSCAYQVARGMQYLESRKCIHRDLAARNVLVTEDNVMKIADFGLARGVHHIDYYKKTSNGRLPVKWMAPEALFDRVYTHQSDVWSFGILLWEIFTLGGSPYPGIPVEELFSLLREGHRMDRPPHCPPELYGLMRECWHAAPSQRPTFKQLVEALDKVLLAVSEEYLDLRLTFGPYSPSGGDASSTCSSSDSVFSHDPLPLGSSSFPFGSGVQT
Sequence of FGFR3 (P22607 23-806): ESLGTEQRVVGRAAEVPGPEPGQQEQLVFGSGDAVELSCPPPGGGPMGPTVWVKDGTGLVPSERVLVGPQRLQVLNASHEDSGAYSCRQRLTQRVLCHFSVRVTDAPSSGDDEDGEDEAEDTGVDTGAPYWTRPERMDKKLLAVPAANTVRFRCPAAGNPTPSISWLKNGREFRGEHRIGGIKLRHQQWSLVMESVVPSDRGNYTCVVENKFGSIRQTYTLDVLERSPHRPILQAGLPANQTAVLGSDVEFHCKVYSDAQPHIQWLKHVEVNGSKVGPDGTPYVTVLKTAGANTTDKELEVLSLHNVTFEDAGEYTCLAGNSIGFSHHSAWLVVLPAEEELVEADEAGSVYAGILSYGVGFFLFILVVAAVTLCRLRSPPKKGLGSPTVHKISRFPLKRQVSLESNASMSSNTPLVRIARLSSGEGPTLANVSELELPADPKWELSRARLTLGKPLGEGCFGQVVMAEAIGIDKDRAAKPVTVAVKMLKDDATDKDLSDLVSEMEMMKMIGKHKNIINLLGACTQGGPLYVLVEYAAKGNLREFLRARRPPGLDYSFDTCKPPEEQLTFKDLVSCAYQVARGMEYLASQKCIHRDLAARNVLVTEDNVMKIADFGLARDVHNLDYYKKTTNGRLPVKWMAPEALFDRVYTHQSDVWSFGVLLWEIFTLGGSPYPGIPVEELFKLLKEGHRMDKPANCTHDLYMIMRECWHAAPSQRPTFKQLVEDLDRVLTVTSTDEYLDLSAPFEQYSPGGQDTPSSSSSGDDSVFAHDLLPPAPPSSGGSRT
Sequence of FGFR1 (P11362 22-822): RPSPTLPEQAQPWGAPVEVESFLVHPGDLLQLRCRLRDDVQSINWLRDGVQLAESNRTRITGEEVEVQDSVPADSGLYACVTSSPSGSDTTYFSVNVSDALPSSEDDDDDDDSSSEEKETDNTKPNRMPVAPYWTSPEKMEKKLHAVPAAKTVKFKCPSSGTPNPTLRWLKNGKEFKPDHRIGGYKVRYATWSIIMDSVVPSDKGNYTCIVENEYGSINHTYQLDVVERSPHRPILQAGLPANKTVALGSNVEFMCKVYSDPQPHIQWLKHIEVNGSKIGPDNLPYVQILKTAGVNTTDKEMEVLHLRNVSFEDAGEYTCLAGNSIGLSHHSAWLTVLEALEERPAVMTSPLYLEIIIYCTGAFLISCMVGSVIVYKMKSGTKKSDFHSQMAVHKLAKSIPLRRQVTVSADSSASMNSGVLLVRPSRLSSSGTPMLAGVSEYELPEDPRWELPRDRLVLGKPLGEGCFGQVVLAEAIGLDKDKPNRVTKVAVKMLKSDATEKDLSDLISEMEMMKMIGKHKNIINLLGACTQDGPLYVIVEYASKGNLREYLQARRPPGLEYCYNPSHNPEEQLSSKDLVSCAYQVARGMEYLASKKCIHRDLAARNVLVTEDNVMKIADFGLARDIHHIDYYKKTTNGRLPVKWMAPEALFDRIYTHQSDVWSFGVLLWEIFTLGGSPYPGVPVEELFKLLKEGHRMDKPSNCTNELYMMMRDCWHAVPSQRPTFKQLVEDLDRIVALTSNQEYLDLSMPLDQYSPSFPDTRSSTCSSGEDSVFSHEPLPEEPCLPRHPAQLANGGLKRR

## CCN1CCN(c2ccc(Nc3cc(N(C)C(=O)Nc4c(Cl)c(OC)cc(OC)c4Cl)ncn3)cc2)CC1 [BGJ398, Infigratinib]
[1]; Homo sapiens, NCI-H1581, CellTiter 96 AQueous (144 hrs) or CellTiter Glo (96 hrs), numeric values, read-out: IC50(nM) value of compounds on NCI-H1581 cells
  IC50: 3.4 nM
[2]; Homo sapiens, RT-112, 96 hrs
  IC50: 4.4 nM
[3]; Homo sapiens, NCI-H716, 96 hrs
  IC50: 4.6 nM
[4]; Homo sapiens
  IC50: 16.9 nM
[5]; Homo sapiens, NCI-H1581, 96 hrs
  IC50: 18.2 nM
[6]; Homo sapiens, JHH7, 96 hrs
  IC50: 54.1 nM
[7]; Homo sapiens, MFE-296, 96 hrs
  IC50: 51.4 nM
[8]; Homo sapiens, OPM-2, 96 hrs
  IC50: 18 nM
[9]; Homo sapiens, SNU-16, 96 hrs
  IC50: 9.5 nM
[10]; Homo sapiens, MDA-MB-453, 96 hrs
  IC50: 544 nM
[11]; Homo sapiens, DMS-114, 96 hrs
  IC50: 33.6 nM

## COc1cc(OC)c(Cl)c(-c2cc3cnc(Nc4ccc(N5CCN6CCC[C@@H]6C5)cc4)nc3n3cnnc23)c1 [Compound 24, (R)-6-(2-chloro-3,5-dimethoxyphenyl)-N-(4-(hexahydropyrrolo[1,2-a]pyrazin-2(1H)-yl)phenyl)-[1,2,4]triazolo[4′,3′:1,6]pyrido[2,3-d]pyrimidin-2-amine]
[1]; [17]
  IC50: 1.2 nM
[12]
  IC50: 0.8 nM
[13]
  IC50: 1.8 nM
[14]
  IC50: 26 nM
[15]; Homo sapiens, SNU-16, 96 hrs
  IC50: < 1 nM

## COc1cc(OC)c(Cl)c(-c2cc3cnc(Nc4ccc(N5CCC(N6CCOCC6)CC5)cc4)nc3n3cnnc23)c1 [Compound 29, 6-(2-chloro-3,5-dimethoxyphenyl)-N-(4-(4-morpholinopiperidin-1-yl)phenyl)-[1,2,4]triazolo[4′,3′:1,6]pyrido[2,3-d]pyrimidin-2-amine]
[1]; [17]
  IC50: 2 nM
[15]; Homo sapiens, SNU-16, 96 hrs
  IC50: < 1 nM

## COc1cc(OC)c(Cl)c(-c2cc3cnc(Nc4ccc(N5CCN6CCOC[C@@H]6C5)cc4)nc3n3cnnc23)c1 [Compound 42, (S)-6-(2-chloro-3,5-dimethoxyphenyl)-N-(4-(hexahydropyrazino[2,1-c][1,4]oxazin-8(1H)-yl)phenyl)-[1,2,4]triazolo[4′,3′:1,6]pyrido[2,3-d]pyrimidin-2-amine]
[1]; [17]
  IC50: 3.2 nM
[12]
  IC50: 1.6 nM
[13]
  IC50: 1.3 nM
[15]; Homo sapiens, SNU-16, 96 hrs
  IC50: < 1 nM

## COc1cc(OC)c(Cl)c(-c2cc3cnc(Nc4ccc(N5CCN6CCOC[C@H]6C5)cc4)nc3n3cnnc23)c1 [Compound 43, (R)-6-(2-chloro-3,5-dimethoxyphenyl)-N-(4-(hexahydropyrazino[2,1-c][1,4]oxazin-8(1H)-yl)phenyl)-[1,2,4]triazolo[4′,3′:1,6]pyrido[2,3-d]pyrimidin-2-amine]
[1]; [17]
  IC50: 1 to 10 nM
[15]; Homo sapiens, SNU-16, 96 hrs
  IC50: < 1 nM

## COc1cc(OC)c(Cl)c(-c2cc3cnc(Nc4ccc(N5C[C@@H](C)N[C@@H](C)C5)cc4)nc3n3cnnc23)c1 [Compound 50, 6-(2-chloro-3,5-dimethoxyphenyl)-N-(4-((3S,5R)-3,5-dimethylpiperazin-1-yl)phenyl)-[1,2,4]triazolo[4′,3′:1,6]pyrido[2,3-d]pyrimidin-2-amine]
[1]; [17]
  IC50: 0.2 nM
[14]
  IC50: 35 nM
[15]; Homo sapiens, SNU-16, 96 hrs
  IC50: < 1 nM

## COc1cc(OC)c(Cl)c(-c2cc3cnc(Nc4ccc(N5CCN6CCC[C@@H]6C5)cc4)nc3n3cnnc23)c1Cl [Compound 64, (R)-6-(2,6-dichloro-3,5-dimethoxyphenyl)-N-(4-(hexahydropyrrolo[1,2-a]pyrazin-2(1H)-yl)phenyl)-[1,2,4]triazolo[4′,3′:1,6]pyrido[2,3-d]pyrimidin-2-amine]
[1]; [17]
  IC50: 0.5 nM
[12]
  IC50: 0.6 nM
[13]
  IC50: 2.7 nM
[14]
  IC50: 14 nM
[15]; Homo sapiens, SNU-16, 96 hrs
  IC50: < 1 nM

## Cc1nc2cc(Cl)c(-c3cc4cnc(Nc5ccc(N6CCOCC6)cc5)nc4n4cnnc34)cc2[nH]1 [Compound 81, 6-(5-chloro-2-methyl-1H-benzo[d]imidazol-6-yl)-N-(4-morpholinophenyl)-[1,2,4]triazolo[4′,3′:1,6]pyrido[2,3-d]pyrimidin-2-amine]
[1]; [17]
  IC50: 9.3 nM
[14]
  IC50: 191 nM

## Cc1nc2cc(Cl)c(-c3cc4cnc(Nc5ccc(N6CCN7CCC[C@@H]7C6)cc5)nc4n4cnnc34)cc2[nH]1 [Compound 84]
[1]; [18]
  IC50: 1 to 10 nM
[15]; Homo sapiens, SNU-16, 96 hrs
  IC50: 1 to 10 nM
[16]
  IC50: < 1 nM

## CCN1CCC(c2ccc(Nc3ncc4cc(-c5cc(OC)cc(OC)c5Cl)c5nncn5c4n3)cc2)CC1 [Compound 102, 6-(2-chloro-3,5-dimethoxyphenyl)-N-(4-(1-ethylpiperidin-4-yl)phenyl)-[1,2,4]triazolo[4′,3′:1,6]pyrido[2,3-d]pyrimidin-2-amine]
[1]; [17]
  IC50: 0.7 nM
[14]
  IC50: 60 nM

## COc1cc(OC)c(Cl)c(-c2cc3cnc(Nc4ccc(C5CCNCC5)cc4)nc3n3cnnc23)c1 [Compound 102-2]
[1]; read-out: IC50(nM) value of compounds on NCI-H1581 cells
  IC50: 0.9 nM
[14]
  IC50: 26 nM

## CCN1CCN(Cc2ccc(Nc3ncc4cc(-c5cc(OC)cc(OC)c5Cl)c5nncn5c4n3)cn2)CC1 [Compound 111, 6-(2-chloro-3,5-dimethoxyphenyl)-N-(6-((4-ethylpiperazin-1-yl)methyl)pyridin-3-yl)-[1,2,4]triazolo[4′,3′:1,6]pyrido[2,3-d]pyrimidin-2-amine]
[1]; [17]
  IC50: 8.2 nM
[14]
  IC50: 288 nM

## C=CC(=O)N1CCN(Cc2nc3c(-c4c(Cl)c(OC)cc(OC)c4Cl)cc4cnc(NC)nc4n3n2)CC1 [Compound 123, 1-(4-(2-(4-(2,6-dichloro-3,5-dimethoxyphenyl)-8-(methylamino)-[1,2,4]triazolo[1′,5′:1,6]pyrido[2,3-d]pyrimidin-2-yl)methyl)piperazin-1-yl)prop-2-en-1-one]
[1]; [17]
  IC50: 5.8 nM
[14]
  IC50: 730 nM

## C=CC(=O)N1CCC2(CC1)CN(CCCc1nc3c(-c4c(Cl)c(OC)cc(OC)c4Cl)cc4cnc(NC)nc4n3n1)C2 [Compound 138, 1-(2-(3-(4-(2,6-dichloro-3,5-dimethoxyphenyl)-8-(methylamino)-[1,2,4]triazolo[1′,5′:1,6]pyrido[2,3-d]pyrimidin-2-yl)propyl)-2,7-diazaspiro[3.5]nonan-7-yl)prop-2-en-1-one]
[15]; Homo sapiens, SNU-16, 96 hrs
  IC50: 1 to 10 nM

## CNc1ncc2cc(-c3c(Cl)c(OC)cc(OC)c3Cl)c3nc(CCCN4CCN(C(=O)C(C#N)=CC(C)C)CC4)nn3c2n1 [Compound 147, 2-(4-(3-(4-(2,6-dichloro-3,5-dimethoxyphenyl)-8-(methylamino)-[1,2,4]triazolo[1′,5′:1,6]pyrido[2,3-d]pyrimidin-2-yl)propyl)piperazine-1-carbonyl)-4-methylpent-2-enenitrile]
[1]; [18]
  IC50: 10 to 100 nM
[15]; Homo sapiens, SNU-16, 96 hrs
  IC50: 10 to 100 nM

## COc1cc(OC)cc(N(CCNC(C)C)c2ccc3ncc(-c4cnn(C)c4)nc3c2)c1 [JNJ42756493]
[1]; CellTiter 96 AQueous (144 hrs) or CellTiter Glo (96 hrs), numeric values, read-out: IC50(nM) value of compounds on NCI-H1581 cells
  IC50: 0.5 nM
[2]; 96 hrs
  IC50: 0.8 nM
[3]; 96 hrs
  IC50: 0.6 nM
[4]
  IC50: 2.4 nM
[15]; 96 hrs
  IC50: < 1 nM
[5]; 96 hrs
  IC50: 1.5 nM
[6]; 96 hrs
  IC50: 3.8 nM
[7]; 96 hrs
  IC50: 16.7 nM
[8]; 96 hrs
  IC50: 2.5 nM
[9]; 96 hrs
  IC50: 1.2 nM
[10]; 96 hrs
  IC50: 11 nM
[11]; 96 hrs
  IC50: 14.8 nM
